Assay results: patent US12162918B2, “Periostin compounds for the treatment of haematological complications” (Chemotherapeutisches Forschungsinstitut Georg-Speyer-Haus, priority 2018, dated 2024)

Key:
[1] = system: HSC; assay: Competitive, serial and limiting dilution transplantation assays of whole bone marrow; format: in vivo, mice
Description: SJL (CD45.1) donor mice were treated with vehicle or warfarin, euthanized and long bones were flushed, followed by RBC lysis (Life Technologies, Darmstadt, Germany). For competitive transplantation 2×10^6 total BM cells from SJL mice were co-transplanted with 1×10^6 CD45.2+ BM competitor cells into lethally irradiated (900 cGy) C57BL/6N (CD45.2+) recipient mice. For serial transplantation 2×10^6 total CD45.1+ BM cells were transplanted into lethally irradiated C57BL/6N recipient mice. Cell engraftment and chimerism were assessed by flow cytometry of peripheral blood leukocytes for CD45.1 and CD45.2 after 4, 8, 12 and 16 weeks post transplantation. In the limiting dilution experiment we treated primary CD45.1+ donor mice with vehicle or warfarin for 14 days and, consequently, transplanted 5×10^5, 12.5×10^4, 6×10^4 and 1.5×10^4 pooled BM cells into 5 CD45.2+ recipients per group adding 5×10^5 CD45.2+ supporter cells. In indicated experiments we transplanted 5,000 or 10,000 sorted CD45.1+ LKS cells from mice treated with vehicle or warfarin plus 1×10^6 CD45.2+ total BM supporter cells into CD45.2+ recipient mice.
Differences in survival were assessed by Kaplan-Meier non-parametric estimates (Log-rank test) and between groups by student's t-test. The data were presented as mean±s.d. We used L-Calc software (Stemcell Technologies, Vancouver, Canada) to calculate HSC frequency by Poisson statistics. P values≤0.05 were accepted as significant.

[2] = system: Lin− and LKS cells; assay: Homing assay to a warfarin-treated BMM; format: in vivo, mice; conditions: 18 hours after transplantation
Description: In the homing assay, we intravenously transplanted 9×10^6 Actin DsRed+ whole BM cells into C57BL/6N mice treated with vehicle or warfarin for 14 days. 18 hours later, we analyzed BM and spleen cells of recipient mice for the presence of DsRed+ LKS cells.

[3] = system: patients; assay: Peripheral blood counts of patients on VKA versus control patients; format: in vivo, human
Text: For FIGS. 6C-6H: Data of patients on VKA were obtained from the French health care databases. Patients with hematological disease, inflammation or sepsis were excluded. Patients admitted to the hospital for dermatological problems without hematological disease or sepsis acted as controls.

Structure (SMILES): CC(=O)CC(c1ccccc1)c1c(O)c2ccccc2oc1=O (stereo not drawn) [warfarin]
- function of whole bone marrow cells in serial transplantation ([1]; P=0.004 after tertiary transplantation): impaired function
- function of whole bone marrow cells in competitive transplantation ([1]; P=0.04 after 16 weeks): impaired function
- reduction of functional HSC in limiting dilution assay ([1]; warfarin-treated vs control mice, P=0.0006, L-Calc): 7.6 fold
- homing of Lin− and LKS cells to a warfarin-treated BMM [2]: not compromised
- absolute number of leukocytes ([3]; 282 patients on warfarin (P=0.0007) or 89 on fluindione (P=0.029) vs 145 control patients): significantly decreased
- absolute number of monocytes ([3]; 282 patients on warfarin (P=0.004) or 89 on fluindione (P=0.046) vs 145 control patients): significantly decreased
- percentage of eosinophils ([3]; 282 patients on warfarin vs 145 control patients, P=0.0027): significantly decreased
- percentage of basophils ([3]; 282 patients on warfarin vs 145 control patients, P=0.007): significantly decreased
- platelets ([3]; warfarin- or fluindione-treated patients): not reduced
